Test results from patent US10772324B2, “Aqueous adjuvant-compositions” (CLARIANT FINANCE (BVI) LIMITED, priority 2012, dated 2020).

Key:
Assay in all cases: Greenhouse trial: effect of adjuvants on activity of glyphosate IPA (fresh weight)
Assay type in all cases: in vivo
[1] = test system: Echinochloa crus-galli (L.) Beauv. (ECHCG); settings: fresh weight relative to untreated plant, 14 days after application; 33.8 g a.e./ha glyphosate IPA; adjuvant 0.25 wt % in spray solution
Protocol: (§1) For the purpose of determining the biological activity, greenhouse trials were carried out with glyphosate on Echinochloa crus-galli (L.) Beauv. (ECHCG), Cirsium arvense L. (CIRAR), and Solanum nigrum L. (SOLNI). The plants were cultivated in a greenhouse under 14 hours of irradiation with light at a temperature of 19/14 (±0.5°) C. (day/night) and a relative humidity of 70/80 (±5)% (day/night). The light was supplied via high-pressure sodium lamps, high-pressure mercury lamps, and fluorescent tubes, producing a power of 70 W/m^2 at the leaf level. The plants were grown in 12 cm diameter plastic pots filled with a mixture of sand and humus in a sand:humus ratio of 1:2 by volume.
(§2) The pots were placed on an under-soil watering mat, which was wetted daily with a medium-strength nutrient solution. Following their appearance at the substrate surface, seedlings were thinned out to five (ECHCG), two (CIRAR), or one (SOLNI) plant per pot for the activity tests.
(§3) The spray solutions were applied using a laboratory sprayer operated with compressed air and fitted with a Teejet TP8003E nozzle at an application rate of 200 l/ha to the plants at 303 kPa. ECHCG was treated at the two- to three-leaf stage; CIRAR and SOLNI were treated at the four-leaf stage.
(§4) For the more differentiated examination of the adjuvant effect, the glyphosate active ingredient was underdosed, meaning that the plants are not completely killed. This was done using aqueous solutions of glyphosate-isopropylammonium salt (glyphosate IPA). The amount of glyphosate used was 33.8 g a.e./ha glyphosate IPA (corresponding to 1.0 mmol or 0.17 g a.e./l for a liquid volume of […]) in the case of ECHCG, and at 20.3 g a.e./ha glyphosate IPA (corresponding to […] or 0.10 g a.e./l at a liquid volume of 200 l/ha) for CIRAR and SOLNI. […]
(§5) The activity of the various adjuvants was assessed 14 days after application, by determining the mass of the plant parts still present (fresh weight; FW), and was reported as a percentage fraction, relative to the untreated plant (Table 3).

[2] = test system: Solanum nigrum L. (SOLNI); settings: fresh weight relative to untreated plant, 14 days after application; 20.3 g a.e./ha glyphosate IPA; adjuvant 0.25 wt % in spray solution
Protocol: as §1, §2, §3, §4, §5

[3] = test system: Cirsium arvense L. (CIRAR); settings: fresh weight relative to untreated plant, 14 days after application; 20.3 g a.e./ha glyphosate IPA; adjuvant 0.25 wt % in spray solution
Protocol: as §1, §2, §3, §4, §5

Q: Which results are given for “glyphosate-isopropylammonium salt [Glyphosate IPA]”?
A: FW in % (ECHCG) [1]: 74.3%; FW in % (SOLNI) [2]: 84.5%; FW in % (CIRAR) [3]: 95.9%
